Data on two molecules can be found in US10508124B2, “Xanthene protective agent” (priority 2016, dated 2019).

This data set is described as follows: physchem. It counts as physicochemical. As to the method:
Peptide used as a model: H-Phe-Leu-NH2
H-Phe-Leu-NH2 and H-Phe-Leu-NH-(TIPS2-Xtn) were synthesized, and each compound was saturated in cyclopentyl methyl ether (CPME) at 25° C. to measure the solubility of each compound.
In regard to H-Phe-Leu-NH2 not bound to a TIPS type protective agent, 0.5 mM of the peptide dissolved in CPME. […] Herein, H-Phe-Leu-NH2 and H-Phe-Leu-NH-(TIPS2-Xtn) have the following structures.

Structures are written as SMILES. In brackets after ≈: the same amount, converted by molar mass. Where a SMILES comes first, the peptide text is derived from it.

Usually solubility stands for the concentration that dissolves in the medium under given conditions. Low readings indicate little dissolved substance, high ones much dissolved substance. As to `CC(C)C[C@H](NC(=O)[C@@H](N)Cc1ccccc1)C(N)=O` [H-Phe-Leu-NH2, reference compound] (H-Phe-Leu-NH2), the solubility was 0.5 mM (≈ 0.139 mg/mL).

`CC(C)C[C@H](NC(=O)[C@@H](N)Cc1ccccc1)C(=O)NC1c2ccc(OCCCCCCCCCCCO[Si](C(C)C)(C(C)C)C(C)C)cc2Oc2cc(OCCCCCCCCCCCO[Si](C(C)C)(C(C)C)C(C)C)ccc21` [H-Phe-Leu-NH-(TIPS2-Xtn)]: the solubility came to 586 mM (≈ 670 mg/mL) and the “solubility in CPME relative to unprotected H-Phe-Leu-NH2” value is no less than 1100 times.
